Source: patent publication US20260176253A1 (priority 2021, published 2026)

Tests used:
[1] = test system: 5HT2A sensor; assay type: cell-based
[2] = test system: 5HT2A sensor; assay type: cell-based; remark: listed apart in the source
[3] = test system: mice; experiment: Head-twitch response (HTR) in mice; assay type: in vivo
Method: Head twitch response (HTR) experiments. C57BL/6J Mice (9-10 weeks old) are housed following an IACUC approved protocol. The mice are habituated in the test cage for at least 30 min, injected intraperitoneally with compound (injection volume 5 ml/kg), returned to the empty test cage, and filmed for 20 minutes. Each video is scored for the number of head-twitches by a trained observer blinded to treatment condition.

[4] = molecular target: T1, 5-HT2A (Homo sapiens, UniProt P28223); experiment: Serotonin 5-HT2A in vitro cellular IPOne agonism assay (HTRF); assay type: cell-based; parameters: host or cells: CHO-K1; details: CHO-K1 cells, 60 min
Method: (§1) Serotonin 5-HT2AIn Vitro Cellular IPOne Agonism Assay. The 5-HT2AIPOne HTRF assay was performed at Epics Therapeutics S. A. (Belgium, FAST-0505I) using conventional methods. Briefly, CHO—K1 cells expressing human recombinant 5-HT2A receptor grown to mid-log phase in culture media without antibiotics were detached with PBS-EDTA, centrifuged, and resuspended in medium without antibiotics buffer. 20,000 cells were distributed in a 96 well plate and incubated overnight at 37° C. with 5% Co2.
For agonist testing, the medium was removed and 20 μl of assay buffer plus 20 μl of test compound or reference agonist were added in each well. The plate was incubated for 60 min. at 37° C. with 5% CO2.
(§2) After addition of the lysis buffer containing IP1-d2 and anti-IP1 cryptate detection reagents, plates were incubated 1-hour at room temperature, and fluorescence ratios were measured according to the manufacturer specification, with the HTRF kit.

[5] = test system: rat cortical neurons; experiment: Neurite outgrowth in primary neuronal cultures assay; assay type: cell-based; parameters: key: A: Statistically significant mean increase as a percent of DMSO control at 10 μM or less; B: No statistically significant mean increase as a percent of DMSO control at 10 μM or less; details: 72h, vs DMSO control, 10 μM or less
Source text: Neurite Outgrowth Assay. Neurite Outgrowth in Primary Neuronal Cultures Assay. Changes in the pattern of neurite outgrowth have been implicated in psychiatric and neurodegenerative disorders as well as traumatic injuries. The discovery of new compounds that can positively affect neuritogenesis are important for developing new therapeutics for neurological diseases. Measurement of neurite outgrowth of rat cortical neurons using an automated image-based assay was used to determine the neuroplastic effects of the compounds of the present disclosure. The neurite outgrowth assay was performed at Neurofit SAS (France) as described below.
Pregnant Wistar rats (Janvier; France) were used for the study. They were delivered 6 days before their use. Upon arrival at Neurofit animal facility, they were housed one per cage and maintained in a room with controlled temperature (21-22° C.) and a reversed light-dark cycle (12 h/12h; lights on: 17:30-05:30; lights off: 05:30-17:30) with food and water available ad libitum.
Female Wistar rats of 17 days gestation were killed by cervical dislocation and the fetuses were removed from the uterus. Their brains were placed in ice-cold medium of Leibovitz (L15, Gibco, Fisher bioblock, France). Cortices were dissected and meninges were carefully removed. The cortical neurons were dissociated by trypsinization for 30 min at 37° C. (trypsin-EDTA, Gibco) in presence of 0.1 mg/ml DNAse I (Roche, France). The reaction was stopped by addition of Dulbecco's Modified Eagle Medium (DMEM; Gibco) with 10% of fetal bovine serum (FBS; Gibco). The suspension was triturated with a 10-ml pipette and using a needle syringe 21G and centrifuged at 350×g for 10 min at room temperature. The pellet of dissociated cells was resuspended in a medium consisting of Neurobasal (Gibco) supplemented with 2% B27 supplement (Gibco), 0.5 mM L-Glutamine (Gibco), an antibiotic-antimicotic mixture. Viable cells were counted in a Neubauer cytometer using the trypan blue exclusion test (Sigma). Cells were seeded at a density of 10000 cells per well in 96-well plate (Costar) precoated with poly-L-lysine. Test compound at different concentrations were added to the cultures. Donepezil (positive control) was tested at 250 nM.
After 72h (3 days) of plating, cultures were fixed with paraformaldehyde in PBS (4%, Sigma) for 30 min at 4° C. Then, cells were successively permeabilized with 0.1% Triton X100 for 30 min, saturated with PBS containing 3% of BSA and were incubated 1 h with anti-beta III tubulin antibody (Sigma) at 1/10 000 in PBS containing 0.5% of BSA. Cells were washed three times with PBS containing 0.5% of BSA, and they were incubated 1 h with goat anti-mouse antibody coupled with AF488 (Invitrogen A11001) diluted at 1/1000 in PBS containing 0.5% of BSA. Finally, nuclei were staining with DAPI 1 mg/ml at 1/1000 in PBS containing 0.5% of BSA. After rinsing with PBS, the plate was filmed and neurite networks were examined and analyzed using High-Content Screening (CellInsight, Thermo Scientific). The average number of neurites per neuron and the average total length of neurites per neuron were the main parameters analyzed. Analysis of data was performed using analysis of variance (ANOVA). The Fisher's Protected Least Significant Difference test was used for multiple comparisons. A p value ≤0.05 was considered significant. The software used is StatView 5.0 from SAS Institut.

[6] = molecular target: T1, 5-HT2A; experiment: Serotonin 5-HT2A in vitro radioligand binding competition assay ([3H]-DOI); parameters: purchased Epics Therapeutics S. A. (Belgium), contract assay FAST-0505B; host or cells: membrane extracts; details: [3H]-DOI competition, membrane extracts; read-out: 5HT2A R[…] ACTIVITY
Method: Serotonin 5-HT2AIn Vitro Radioligand Binding Competition Assay. The 5-HT2A radioligand binding competition assay was performed at Epics Therapeutics S. A. (Belgium, FAST-0505B) using conventional methods. Briefly, competition binding is performed in duplicate in the wells of a 96 well plate (Master Block, Greiner, 786201) containing binding buffer (optimized for each receptor), membrane extracts (amount of protein/well optimized for each receptor), radiotracer [3H]-DOI (final concentration optimized for each receptor) and test compound. Nonspecific binding was determined by co-incubation with 200-fold excess of cold competitor. The samples were incubated in a final volume of 0.1 ml at a temperature and for a duration optimized for each receptor and then filtered over filter plates. Filters were washed six times with 0.5 ml of ice-cold washing buffer (optimized for each receptor) and 50 µl of Microscint 20 (Packard) were added in each well. The plates were incubated 15 min on an orbital shaker and then counted with a TopCount™ for 1 min/well.

[7] = molecular target: T1, 5-HT2A; experiment: Serotonin 5-HT2A in vitro cellular IPOne antagonism assay (HTRF); assay type: cell-based; parameters: host or cells: CHO-K1; details: CHO-K1 cells, reference agonist a-Me-5HT
Method: as §1, with “Antagonism” for “Agonism”, “FAST-0505I) in antagonism mode” for “FAST-0505I)”
For antagonist testing, a reference agonist a-Me-5HT was added and fluorescence signal monitored for several minutes, followed by addition of 20 μl of assay buffer plus 20 μl of test compound or reference antagonist ketanserin, in each well. The plate was incubated for 60 min. at 37° C. with 5% CO2.
as §2

T1 sequence (P28223 whole entry): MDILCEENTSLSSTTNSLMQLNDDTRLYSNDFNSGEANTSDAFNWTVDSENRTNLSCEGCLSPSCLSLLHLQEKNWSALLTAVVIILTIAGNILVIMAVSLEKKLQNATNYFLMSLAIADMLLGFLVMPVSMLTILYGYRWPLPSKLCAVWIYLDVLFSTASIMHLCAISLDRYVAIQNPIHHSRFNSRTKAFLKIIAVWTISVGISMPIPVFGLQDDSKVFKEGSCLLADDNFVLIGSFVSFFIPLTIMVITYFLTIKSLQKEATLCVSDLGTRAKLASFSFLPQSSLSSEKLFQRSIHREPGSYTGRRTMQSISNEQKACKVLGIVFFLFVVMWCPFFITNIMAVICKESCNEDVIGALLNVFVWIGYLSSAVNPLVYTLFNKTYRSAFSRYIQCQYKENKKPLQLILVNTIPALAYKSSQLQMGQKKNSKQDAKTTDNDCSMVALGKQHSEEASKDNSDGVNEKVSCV

SMILES | activation of the 5HT2A sensor assay in agonist mode [1] | competition with 5-HT in the 5HT2A sensor assay in antagonist mode [2] | head-twitch response (HTR) [3] | EC50 [4] | INCREASE IN NEURITE BRANCHING [5] | INCREASE IN NEURITE LENGTH [5] | INCREASE IN NEURITE NUMBER [5] | IC50 [6] | IC50 [7]
CN[C@H](C)Cc1ccc2c(c1)OCO2 [L-MDMA] | do not activate the 5HT2A sensor assay in agonist mode | – | – | – | – | – | – | – | –
CCN(CC)C(=O)[C@@H]1C=C2c3cccc4[nH]cc(c34)C[C@H]2N(C)C1 [LSD] | activate the 5HT2A sensor assay in agonist mode | – | – | – | – | – | – | – | –
CCN(CC)C(=O)[C@@H]1C=C2c3cccc4[nH]c(Br)c(c34)C[C@H]2N(C)C1 [BOL148] | do not activate the 5HT2A sensor assay in agonist mode | can compete with 5HT binding to 5HT2A | – | – | – | – | – | – | –
CCN(CC)CCc1c[nH]c2cc(F)ccc12 [Compound 6-F-DET] | do not activate the 5HT2A sensor assay in agonist mode | can compete with 5HT binding to 5HT2A | – | – | – | – | – | – | –
COc1ccc2[nH]cc(CCN(C)C)c2c1 [Compound 5-MeO-DMT] | activate the 5HT2A sensor assay in agonist mode | – | robust, dose-dependent head-twitch response | – | – | – | – | – | –
O=C(c1ccc(F)cc1)C1CCN(CCn2c(=O)[nH]c3ccccc3c2=O)CC1 [Ketanserin] | do not activate the 5HT2A sensor assay in agonist mode | can compete with 5HT binding to 5HT2A | – | – | – | – | – | – | –
COc1ccc2c3c([nH]c2c1)CCN1CCC[C@H]1C3 [Compound 25, (S)-9-methoxy-1,2,3,5,6,7,12,12a-octahydropyrrolo[1′,2′:1,7]azepino[4,5-b]indole] | – | – | – | > 10 µM | A | A | A | > 10 µM | 0.101 to 1 µM
COc1ccc2c3c([nH]c2c1)CCN1CCC[C@@H]1C3 [Compound 24, (R)-9-methoxy-1,2,3,5,6,7,12,12a-octahydropyrrolo[1′,2′:1,7]azepino[4,5-b]indole] | – | – | – | > 10 µM | A | A | A | 1 to 10 µM | 0.101 to 1 µM
c1ccc2c3c([nH]c2c1)C[C@@H]1CCCN1CC3 [Compound 19, (S)-1,2,3,5,6,11,12,12a-octahydropyrrolo[1′,2′:1,2]azepino[4,5-b]indole] | – | – | – | 0.101 to 1 µM | A | A | A | 0.101 to 1 µM | 0.101 to 1 µM
COc1ccc2c(CCN(C)C)c[nH]c2c1 [Compound 6-MeO-DMT] | do not activate the 5HT2A sensor assay in agonist mode | compete off 5-HT | does not produce a HTR | – | – | – | – | – | –
CN(C)CCc1c[nH]c2ccccc12 [DMT, N,N-dimethyltryptamine] | activate the 5HT2A sensor assay in agonist mode | – | – | – | – | – | – | – | –
COc1ccc2c3c([nH]c2c1)C[C@@H]1CCCN1CC3 [Compound 17, (S)-9-methoxy-1,2,3,5,6,11,12,12a-octahydropyrrolo[1′,2′:1,2]azepino[4,5-b]indole] | – | – | – | > 10 µM | A | A | A | > 10 µM | > 10 µM
c1ccc2c3c([nH]c2c1)C[C@H]1CCCN1CC3 [Compound 20, (R)-1,2,3,5,6,11,12,12a-octahydropyrrolo[1′,2′:1,2]azepino[4,5-b]indole] | – | – | – | 0.101 to 1 µM | A | A | A | 0.101 to 1 µM | 1 to 10 µM
COc1cc(CC(C)N)c(OC)cc1I (stereo not drawn) [DOI] | activate the 5HT2A sensor assay in agonist mode | – | – | – | – | – | – | – | –
FC(F)(F)Oc1ccc2c3c([nH]c2c1)CC1CCCN1CC3 (stereo not drawn) [Compound 13, 9-(trifluoromethoxy)-1,2,3,5,6,11,12,12a-octahydropyrrolo[1′,2′;1,2]azepino[4,5-b]indole] | – | – | – | > 10 µM | B | A | B | 1 to 10 µM | 0.101 to 1 µM
